Source: PMC11110763, “Carltonine-derived compounds for targeted butyrylcholinesterase inhibition” (RSC Medicinal Chemistry, 2024)
Where two headings read alike, the source gives them in different places.

How the values were obtained:
[1] = PAMPA assay (BBB penetration); conditions: for Pe ± SEM: PAMPA, PBS pH 7.4, n = 3; for BBB penetration estimation CNS (+/−): class from PAMPA Pe
Description: Furthermore, we experimentally determined the ability of 12 highlighted hBChE inhibitors to pass through the BBB using a parallel artificial membrane permeation assay (PAMPA) as described by Di et al.[65] […] The methodology was validated on a set of compounds (positive and negative controls) recognized for their activity in the CNS (Table 3).
In this study, it has been used as a non-cell-based in vitro assay carried out in a coated 96-well membrane filter. The filter membrane of the donor plate was coated with PBL (polar brain lipid, Avanti, USA) in dodecane (4 μl of 20 mg ml^−1 PBL in dodecane) and the acceptor well was filled with 300 μl of PBS (pH 7.4; VA). The tested compounds were dissolved first in DMSO and subsequently diluted with PBS (pH 7.4) to final concentrations of 50–100 μM in the donor wells. […] About 300 μL of the donor solution was added to the donor wells (VD) and the donor filter plate was carefully put on the acceptor plate so that the coated membrane was “in touch” with both the donor solution and acceptor buffer. In principle, the test compound diffused from the donor well through the lipid membrane (area = 0.28 cm^2) to the acceptor well. The concentration of the drug in both the donor and acceptor wells was assessed after 3, 4, 5, and 6 h of incubation in quadruplicate using the UV plate reader Spark (Tecan Group Ltd, Switzerland) at the maximum absorption wavelength of each compound. Besides that, a solution of theoretical compound concentration, simulating the equilibrium state established if the membrane were ideally permeable, was prepared and assessed as well. The concentration of the compounds in the donor and acceptor wells and equilibrium concentration were calculated from the standard curve and expressed as the permeability (Pe) according the equation: [drawing 10] where [drawing 11]

[2] = molecular target: T1, recombinant BChE (hBChE, E.C. 3.1.1.8) (Homo sapiens, UniProt P06276); assay: biochemical; format: biochemical; conditions: for IC50: mean ± SEM of three independent measurements, each in triplicate; for inhibition at 10 µM: read-out: % inhibition of hBChE ± SEM
T1 construct: purchased Sigma-Aldrich, Prague, Czech Republic
Protocol: The activities of hAChE and hBChE were determined using a modified Ellman's method, as described in ref. [56] and [62] against recombinant AChE (hAChE, E.C. 3.1.1.7) and recombinant BChE (hBChE, E.C. 3.1.1.8), both of which were purchased from Sigma-Aldrich, Prague, Czech Republic. […] The other compounds used, including the phosphate buffer solution (PBS, pH = 7.4), 5,5′-dithio-bis(2-nitrobenzoic) acid (Ellman's reagent, DTNB), acetylthiocholine (ATChI), and butyrylthiocholine (BTChI), were commercially available and purchased from Sigma-Aldrich in Prague, Czech Republic. In brief, the corresponding enzyme (8.3 μL), 5 mM DTNB (283 μL), and the sample dilution in dimethyl sulfoxide (DMSO) at various concentrations (8.3 μL) were added to 96-well microplates (BRAND GMBH + CO KG, Wertheim, Germany) and pre-incubated for 5 minutes in the assay medium. The reaction was initiated by adding 10 mM substrate (ATChI or BTChI, 33.3 μL). […] Each measurement was repeated in triplicate. The percentage of inhibition was calculated using the following formula: [drawing 8] where ΔABl represents the increase in absorbance of the blank sample, and ΔASa represents the increase in absorbance of the measured sample. […] Microsoft Excel (Redmond, WA, USA) and GraphPad Prism version 7 for Windows (GraphPad Software, San Diego, CA, USA) were used for the statistical data evaluation.

[3] = tested at 10 μM compound concentration

T1 sequence (P06276 29-602): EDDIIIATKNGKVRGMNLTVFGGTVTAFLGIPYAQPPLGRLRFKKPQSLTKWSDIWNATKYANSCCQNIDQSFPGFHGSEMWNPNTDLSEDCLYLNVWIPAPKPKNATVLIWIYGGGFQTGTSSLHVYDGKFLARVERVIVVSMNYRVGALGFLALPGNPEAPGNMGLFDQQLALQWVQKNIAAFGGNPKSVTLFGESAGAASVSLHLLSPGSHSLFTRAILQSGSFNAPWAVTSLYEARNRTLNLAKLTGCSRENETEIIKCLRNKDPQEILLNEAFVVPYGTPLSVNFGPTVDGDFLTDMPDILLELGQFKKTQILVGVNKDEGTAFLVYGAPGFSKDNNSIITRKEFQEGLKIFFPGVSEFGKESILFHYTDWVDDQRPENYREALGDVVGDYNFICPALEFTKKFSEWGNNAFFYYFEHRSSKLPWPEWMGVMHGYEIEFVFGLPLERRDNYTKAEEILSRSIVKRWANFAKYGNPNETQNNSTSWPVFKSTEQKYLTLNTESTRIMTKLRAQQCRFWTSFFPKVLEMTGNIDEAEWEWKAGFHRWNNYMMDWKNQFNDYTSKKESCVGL

CCN(Cc1ccccc1)Cc1cccc(OCc2ccccc2)c1 [Compound 19, Benzyl({[3-(benzyloxy)phenyl]methyl})ethylamine]
Pe ± SEM [1]: 36 ± 14 ×10^−6 cm s^−1 | BBB penetration estimation CNS (+/−) [1]: CNS + (CNS (+) (high BBB permeation predicted): Pe (×10^−6 cm s^−1) > 4.0) | IC50 [2]: 500 ± 100 nM | inhibition at 10 µM [2, 3]: 88 ± 1.1%

CCCN(CCc1ccccc1)Cc1cccc(OCc2ccccc2)c1 [Compound 22, {[3-(Benzyloxy)phenyl]methyl}(2-phenylethyl)propylamine]
IC50 [2]: 700 ± 100 nM | inhibition at 10 µM [2, 3]: 81 ± 0.8%

CCCN(CCCc1ccccc1)Cc1ccc(OCc2ccccc2)cc1 [Compound 45, {[4-(Benzyloxy)phenyl]methyl}(3-phenylpropyl)propylamine]
Pe ± SEM [1]: 25.0 ± 2.9 ×10^−6 cm s^−1 | BBB penetration estimation CNS (+/−) [1]: CNS + (CNS (+) (high BBB permeation predicted): Pe (×10^−6 cm s^−1) > 4.0) | IC50 [2]: 290 ± 40 nM | inhibition at 10 µM [2, 3]: 93 ± 0.8%

COc1cccc(CCNCc2cccc(OCc3ccccc3)c2)c1 [Compound 6, {[3-(Benzyloxy)phenyl]methyl}[2-(3-methoxyphenyl)ethyl]amine]
IC50 [2]: 2700 ± 200 nM | inhibition at 10 µM [2, 3]: 78 ± 0.4%

C=CCN(CCc1ccccc1)Cc1cccc(OCc2ccccc2)c1 [Compound 23, {[3-(Benzyloxy)phenyl]methyl}(2-phenylethyl)(prop-2-en-1-yl)amine]
IC50 [2]: 7700 ± 1700 nM | inhibition at 10 µM [2, 3]: 60 ± 0.4%

CCCN(CCCc1ccccc1)Cc1cccc(OCc2ccccc2)c1 [Compound 25, {[3-(Benzyloxy)phenyl]methyl}(3-phenylpropyl)propylamine]
Pe ± SEM [1]: 33.0 ± 6.8 ×10^−6 cm s^−1 | BBB penetration estimation CNS (+/−) [1]: CNS + (CNS (+) (high BBB permeation predicted): Pe (×10^−6 cm s^−1) > 4.0) | IC50 [2]: 540 ± 30 nM | inhibition at 10 µM [2, 3]: 89 ± 0.8%

CCCN(Cc1ccc(OCc2ccccc2)cc1)C(C)CCc1ccccc1 (stereo not shown) [Compound 47, {[4-(Benzyloxy)phenyl]methyl}(4-phenylbutan-2-yl)propylamine]
IC50 [2]: 1000 ± 300 nM | inhibition at 10 µM [2, 3]: 93 ± 0.2%

CC(CNCc1ccc(OCc2ccccc2)cc1)c1ccccc1 (stereo not shown) [Compound 41, {[4-(Benzyloxy)phenyl]methyl}(2-phenylpropyl)amine]
IC50 [2]: 1600 ± 100 nM | inhibition at 10 µM [2, 3]: 88 ± 1%

CCN(Cc1ccc(OCc2ccccc2)cc1)C(C)CCc1ccccc1 (stereo not shown) [Compound 46, {[4-(Benzyloxy)phenyl]methyl}(ethyl)(4-phenylbutan-2-yl)amine]
Pe ± SEM [1]: 36.0 ± 2.0 ×10^−6 cm s^−1 | BBB penetration estimation CNS (+/−) [1]: CNS + (CNS (+) (high BBB permeation predicted): Pe (×10^−6 cm s^−1) > 4.0) | IC50 [2]: 500 ± 300 nM | inhibition at 10 µM [2, 3]: 87 ± 1.5%

CCN(CCc1ccccc1)Cc1cccc(OCc2ccccc2)c1 [Compound 21, {[3-(Benzyloxy)phenyl]methyl}(ethyl)(2-phenylethyl)amine]
Pe ± SEM [1]: 21.0 ± 0.6 ×10^−6 cm s^−1 | BBB penetration estimation CNS (+/−) [1]: CNS + (CNS (+) (high BBB permeation predicted): Pe (×10^−6 cm s^−1) > 4.0) | IC50 [2]: 400 ± 100 nM | inhibition at 10 µM [2, 3]: 91 ± 0.4%

Clc1cccc(NCc2cccc(OCc3ccccc3)c2)c1 [Compound 13, N-{[3-(Benzyloxy)phenyl]methyl}-3-chloroaniline]
hBChE inhibitory activity (in words) [2]: completely inactive | IC50 [2]: > 10000 nM | inhibition at 10 µM [2, 3]: 7.5 ± 0.4%

c1ccc(CCCCNCc2ccc(OCc3ccccc3)cc2)cc1 [Compound 40, {[4-(Benzyloxy)phenyl]methyl}(4-phenylbutyl)amine]
IC50 [2]: 800 ± 100 nM | inhibition at 10 µM [2, 3]: 85 ± 0.6%

c1ccc(CNCc2cccc(OCc3ccccc3)c2)cc1 [Compound 14, Benzyl({[3-(benzyloxy)phenyl]methyl})amine]
Pe ± SEM [1]: 9.8 ± 2.9 ×10^−6 cm s^−1 | BBB penetration estimation CNS (+/−) [1]: CNS + (CNS (+) (high BBB permeation predicted): Pe (×10^−6 cm s^−1) > 4.0) | IC50 [2]: 500 ± 100 nM | inhibition at 10 µM [2, 3]: 92 ± 0.3%

COc1cccc(CCNCc2ccc(OCc3ccccc3)cc2)c1 [Compound 30, {[4-(Benzyloxy)phenyl]methyl}[2-(3-methoxyphenyl)ethyl]amine]
IC50 [2]: 4900 ± 1000 nM | inhibition at 10 µM [2, 3]: 66 ± 0.1%

COc1ccc(CCNCc2cccc(OCc3ccccc3)c2)cc1 [Compound 7, {[3-(Benzyloxy)phenyl]methyl}[2-(4-methoxyphenyl)ethyl]amine]
IC50 [2]: 4800 ± 200 nM | inhibition at 10 µM [2, 3]: 73 ± 0.6%

COc1ccc(CNCc2cccc(OCc3ccccc3)c2)cc1OC [Compound 15, {[3-(Benzyloxy)phenyl]methyl}[(3,4-dimethoxyphenyl)methyl]amine]
hBChE inhibitory activity (in words) [2]: completely inactive | IC50 [2]: > 10000 nM | inhibition at 10 µM [2, 3]: 49 ± 1.4%

c1ccc(CCNCc2cccc(OCc3ccccc3)c2)cc1 [Compound 16, {[3-(Benzyloxy)phenyl]methyl}(2-phenylethyl)amine]
IC50 [2]: 600 ± 100 nM | inhibition at 10 µM [2, 3]: 91 ± 0.9%

c1ccc(CCNCc2ccc(OCc3ccccc3)cc2)cc1 [Compound 37, {[4-(Benzyloxy)phenyl]methyl}(2-phenylethyl)amine]
IC50 [2]: 2000 ± 300 nM | inhibition at 10 µM [2, 3]: 81 ± 1.4%

CNC(=O)Oc1ccc2c(c1)[C@]1(C)CCN(C)[C@@H]1N2C [Eserine, reference compound]
inhibition at 10 µM [2]: 96 ± 0.3%

c1ccc(COc2ccc(CNCc3ccccn3)cc2)cc1 [Compound 36, {[4-(Benzyloxy)phenyl]methyl}[(pyridin-2-yl)methyl]amine]
IC50 [2]: > 10000 nM | inhibition at 10 µM [2, 3]: 18 ± 0.5%

NS(=O)(=O)c1cc2c(cc1Cl)N=CNS2(=O)=O [Chlorothiazide, reference compound]
BBB penetration estimation CNS (+/−) [1]: CNS − (CNS (−) (low BBB permeation predicted): Pe (×10^−6 cm s^−1) < 2.0)

CCN(CCCc1ccccc1)Cc1cccc(OCc2ccccc2)c1 [Compound 24, {[3-(Benzyloxy)phenyl]methyl}(ethyl)(3-phenylpropyl)amine]
IC50 [2]: 600 ± 100 nM | inhibition at 10 µM [2, 3]: 94 ± 0.6%

c1ccc(COc2ccc(CNCCc3ccccn3)cc2)cc1 [Compound 38, {[4-(Benzyloxy)phenyl]methyl}[2-(pyridin-2-yl)ethyl]amine]
IC50 [2]: > 10000 nM | inhibition at 10 µM [2, 3]: 23 ± 1%

c1ccc(CNCc2ccc(OCc3ccccc3)cc2)cc1 [Compound 35, Benzyl({[4-(benzyloxy)phenyl]methyl})amine]
IC50 [2]: 2800 ± 600 nM | inhibition at 10 µM [2, 3]: 60 ± 0.1%

Nc1c2c(nc3ccccc13)CCCC2 [Tacrine, reference compound]
BBB penetration estimation CNS (+/−) [1]: CNS + (CNS (+) (high BBB permeation predicted): Pe (×10^−6 cm s^−1) > 4.0)

C=CCN(CCCc1ccccc1)Cc1cccc(OCc2ccccc2)c1 [Compound 26, {[3-(Benzyloxy)phenyl]methyl}(3-phenylpropyl)(prop-2-en-1-yl)amine]
IC50 [2]: 1200 ± 300 nM | inhibition at 10 µM [2, 3]: 76 ± 1.7%

C=CCOc1ccc(CCNCc2cccc(OCc3ccccc3)c2)cc1 [Compound 12, {[3-(Benzyloxy)phenyl]methyl}({2-[4-(prop-2-en-1-yloxy)phenyl]ethyl})amine]
IC50 [2]: 4000 ± 1000 nM | inhibition at 10 µM [2, 3]: 75.5 ± 0.5%

Clc1ccc(CCNCc2ccc(OCc3ccccc3)cc2)cc1 [Compound 32, {[4-(Benzyloxy)phenyl]methyl}[2-(4-chlorophenyl)ethyl]amine]
IC50 [2]: 700 ± 200 nM | inhibition at 10 µM [2, 3]: 85 ± 1%

c1ccc(CCCNCc2cccc(OCc3ccccc3)c2)cc1 [Compound 17, {[3-(Benzyloxy)phenyl]methyl}(3-phenylpropyl)amine]
IC50 [2]: 600 ± 100 nM | inhibition at 10 µM [2, 3]: 89 ± 1.8%

C=CCOc1ccc(CCN(CC=C)Cc2cccc(OCc3ccccc3)c2)cc1 [Compound 9, {[3-(Benzyloxy)phenyl]methyl}(prop-2-en-1-yl){2-[4-(prop-2-en-1-yloxy)phenyl]ethyl}amine]
hBChE inhibitory activity (in words) [2]: complete loss of hBChE inhibitory activity | IC50 [2]: > 10000 nM | inhibition at 10 µM [2, 3]: 46 ± 1.7%

C=CCN(Cc1ccccc1)Cc1cccc(OCc2ccccc2)c1 [Compound 20, Benzyl({[3-(benzyloxy)phenyl]methyl})(prop-2-en-1-yl)amine]
IC50 [2]: > 10000 nM | inhibition at 10 µM [2, 3]: 36 ± 0.8%

CCCN(Cc1ccccc1)Cc1ccc(OCc2ccccc2)cc1 [Compound 44, Benzyl({[4-(benzyloxy)phenyl]methyl})propylamine]
IC50 [2]: > 10000 nM | inhibition at 10 µM [2, 3]: 18 ± 0.3%

C=CCN(CCc1ccc(O)cc1)Cc1cccc(OCc2ccccc2)c1 [Compound 8, 4-[2-({[3-(Benzyloxy)phenyl]methyl}(prop-2-en-1-yl)amino)ethyl]phenol]
IC50 [2]: 600 ± 100 nM | inhibition at 10 µM [2, 3]: 92 ± 0.5%

COc1ccc2c3c1O[C@H]1C[C@@H](O)C=C[C@@]31CCN(C)C2 [Galantamine, reference compound]
inhibition at 10 µM [2]: 29 ± 3.5%

COc1ccccc1CCNCc1ccc(OCc2ccccc2)cc1 [Compound 29, {[4-(Benzyloxy)phenyl]methyl}[2-(2-methoxyphenyl)ethyl]amine]
IC50 [2]: 800 ± 200 nM | inhibition at 10 µM [2, 3]: 89 ± 0.9%

c1ccc(CCCNCc2ccc(OCc3ccccc3)cc2)cc1 [Compound 39, {[4-(Benzyloxy)phenyl]methyl}(3-phenylpropyl)amine]
IC50 [2]: 700 ± 100 nM | inhibition at 10 µM [2, 3]: 90 ± 0.3%

CC(CCc1ccccc1)NCc1ccc(OCc2ccccc2)cc1 (stereo not shown) [Compound 42, {[4-(Benzyloxy)phenyl]methyl}(4-phenylbutan-2-yl)amine]
Pe ± SEM [1]: 22.0 ± 4.2 ×10^−6 cm s^−1 | BBB penetration estimation CNS (+/−) [1]: CNS + (CNS (+) (high BBB permeation predicted): Pe (×10^−6 cm s^−1) > 4.0) | IC50 [2]: 500 ± 100 nM | inhibition at 10 µM [2, 3]: 92 ± 0.5%

COc1ccc(CCNCc2ccc(OCc3ccccc3)cc2)cc1 [Compound 31, {[4-(Benzyloxy)phenyl]methyl}[2-(4-methoxyphenyl)ethyl]amine]
IC50 [2]: 3000 ± 600 nM | inhibition at 10 µM [2, 3]: 93 ± 0.2%

CCN(Cc1ccccc1)Cc1ccc(OCc2ccccc2)cc1 [Compound 43, Benzyl({[4-(benzyloxy)phenyl]methyl})ethylamine]
IC50 [2]: > 10000 nM | inhibition at 10 µM [2, 3]: 50 ± 1.1%

CCCOc1ccc(CCN(CCC)Cc2ccc(OCc3ccccc3)cc2)cc1 [Compound 34, {[4-(Benzyloxy)phenyl]methyl}[2-(4-propoxyphenyl)ethyl]propylamine]
hBChE inhibitory activity (in words) [2]: complete loss of hBChE inhibitory activity | IC50 [2]: > 10000 nM | inhibition at 10 µM [2, 3]: 30 ± 0.9%
